Assay results as given in patent US11291648B2, “Powdered formulations of cromolyn sodium and alpha-lactose” (The General Hospital Corporation, priority 2018, dated 2022).
Read-outs that look alike come from different tables or passages of the source. One block for each compound: values may come before it.

Experiments:
[1] = Table 5, Gilani et al.; cited from earlier work
[2] = Particle size distribution (PSD) of formulation components; type: physicochemical; settings: for D10 / D50 / D90: Cromolyn API (micronized), Table 2; for D10 (3-6 μm) / D50 (20-25 μm) / D90 (50-60 μm): α-Lactose (DFE Pharma Lactohale LH201), Table 3; for D50 (<5 μm) / D90 (<10 μm): Magnesium Stearate (micronized), Table 4
Description: The methodology included particle size determination (PSD); powdered x-ray crystallization diffraction (PXRD); and gravimetric vapor sorption (GVS).

Compound: OC[C@H]1O[C@@H](O[C@H]2[C@H](O)[C@@H](O)[C@@H](O)O[C@@H]2CO)[C@H](O)[C@@H](O)[C@H]1O [Batch P325M, α-Lactose]
D10 [1]: 6.6 ± 0.8
D90 [1]: 74.1 ± 3.8

Compound: OC[C@H]1O[C@@H](O[C@H]2[C@H](O)[C@@H](O)[C@@H](O)O[C@@H]2CO)[C@H](O)[C@@H](O)[C@H]1O [Batch P450M, α-Lactose]
D10 [1]: 2.5 ± 0.3
D90 [1]: 26.5 ± 0.3

Particle size D10 ([2]; component of Batch 1, Table 8): 0.6 μm
Particle size D50 ([2]; component of Batch 1, Table 8): 1.8 μm
Particle size D90 ([2]; component of Batch 1, Table 8): 3.8 μm
Particle size D90 ([2]; component of Batch 2, Table 8): 4.2 μm
Particle size D10 ([2]; component of Batch 3, Table 8): 0.6 μm
Particle size D50 ([2]; component of Batch 3, Table 8): 1.8 μm
Particle size D90 ([2]; component of Batch 3, Table 8): 3.8 μm
Compound: O=C(O)c1cc(=O)c2c(OCC(O)COc3cccc4oc(C(=O)O)cc(=O)c34)cccc2o1 [Cromolyn Sodium, Cromolyn sodium]
D10 [1]: 0.7 ± 0.1
D50 [1]: 1.52 ± 0.2
D90 [1]: 3.03 ± 0.02

D10 ([2]; listed as 13-0105): 0.5 μm
D50 ([2]; listed as 13-0105): 1.9 μm
D90 ([2]; listed as 13-0105): 4.6 μm
Compound: O=C(O)c1cc(=O)c2c(OCC(O)COc3cccc4oc(C(=O)O)cc(=O)c34)cccc2o1 [Lot # 13-0105, Cromolyn sodium]

D10 ([2]; listed as 15-0013): 0.6 μm
D50 ([2]; listed as 15-0013): 1.8 μm
D90 ([2]; listed as 15-0013): 3.8 μm
Compound: O=C(O)c1cc(=O)c2c(OCC(O)COc3cccc4oc(C(=O)O)cc(=O)c34)cccc2o1 [Lot # 15-0013, Cromolyn sodium]

D90 ([2]; listed as 15-0079): 4.2 μm
Compound: O=C(O)c1cc(=O)c2c(OCC(O)COc3cccc4oc(C(=O)O)cc(=O)c34)cccc2o1 [Lot # 15-0079, Cromolyn sodium]

D10 (3-6 μm) ([2]; listed as 13-0094): 3 μm
D50 (20-25 μm) ([2]; listed as 13-0094): 21 μm
D90 (50-60 μm) ([2]; listed as 13-0094): 54 μm
Compound: OC[C@H]1O[C@@H](O[C@H]2[C@H](O)[C@@H](O)[C@@H](O)O[C@@H]2CO)[C@H](O)[C@@H](O)[C@H]1O [Lot# 13-0094, α-Lactose]

D10 (3-6 μm) ([2]; listed as 15-0066): 4 μm
D50 (20-25 μm) ([2]; listed as 15-0066): 23 μm
D90 (50-60 μm) ([2]; listed as 15-0066): 57 μm
Compound: OC[C@H]1O[C@@H](O[C@H]2[C@H](O)[C@@H](O)[C@@H](O)O[C@@H]2CO)[C@H](O)[C@@H](O)[C@H]1O [Lot# 15-0066, α-Lactose]

D10 (3-6 μm) ([2]; listed as 16-0127): 3 μm
D50 (20-25 μm) ([2]; listed as 16-0127): 22 μm
D90 (50-60 μm) ([2]; listed as 16-0127): 59 μm
Compound: OC[C@H]1O[C@@H](O[C@H]2[C@H](O)[C@@H](O)[C@@H](O)O[C@@H]2CO)[C@H](O)[C@@H](O)[C@H]1O [Lot# 16-0127, α-Lactose]

Particle size D10 ([2]; component of Batch 1, Table 8): 3 μm
Particle size D50 ([2]; component of Batch 1, Table 8): 21 μm
Particle size D90 ([2]; component of Batch 1, Table 8): 54 μm
Particle size D10 ([2]; component of Batch 2, Table 8): 4 μm
Particle size D50 ([2]; component of Batch 2, Table 8): 23 μm
Particle size D90 ([2]; component of Batch 2, Table 8): 57 μm
Particle size D10 ([2]; component of Batch 3, Table 8): 3 μm
Particle size D50 ([2]; component of Batch 3, Table 8): 22 μm
Particle size D90 ([2]; component of Batch 3, Table 8): 59 μm
Compound: OC[C@H]1O[C@@H](O[C@H]2[C@H](O)[C@@H](O)[C@@H](O)O[C@@H]2CO)[C@H](O)[C@@H](O)[C@H]1O [α-Lactose]

Compound: Magnesium Stearate [Lot 14-0035]
D50 (<5 μm) ([2]; listed as 14-0035): 3.56 μm
D90 (<10 μm) ([2]; listed as 14-0035): 6.74 μm

Compound: Magnesium Stearate [Lot 15-0077]
D50 (<5 μm) ([2]; listed as 15-0077): 4.82 μm
D90 (<10 μm) ([2]; listed as 15-0077): 9.28 μm

Compound: Magnesium Stearate [Lot 18-0038]
D50 (<5 μm) ([2]; listed as 18-0038): 4.33 μm
D90 (<10 μm) ([2]; listed as 18-0038): 8.04 μm

Compound: Magnesium Stearate [Mg St]
Particle size D10 ([2]; component of Batch 1, Table 8): 3.3 μm
Particle size D50 ([2]; component of Batch 1, Table 8): 8.3 μm
Particle size D90 ([2]; component of Batch 1, Table 8): 22.6 μm
Particle size D50 ([2]; component of Batch 2, Table 8): 4.82 μm
Particle size D90 ([2]; component of Batch 2, Table 8): 9.28 μm
Particle size D50 ([2]; component of Batch 3, Table 8): 4.33 μm
Particle size D90 ([2]; component of Batch 3, Table 8): 8.04 μm
